Assay results as given in patent publication US20250042916A1 (ACONCAGUA BIO, INC., priority 2023, published 2025).
pEC50: −log10 of the molar value.

These compounds were tested against human calcitonin receptor (CTR) and RAMP3 (AMY3) in COS-7 cells (Homo sapiens, UniProt O60896+P30988) (assay: Amylin Receptor cAMP Assay I). Conditions: values marked *: Amylin Receptor cAMP Assay I; COS-7/AMY3 cells; read-out: Amylin Receptor cAMP Stimulation Activity: EC50.
Sequence of human calcitonin receptor (CTR) and RAMP3 (AMY3) in COS-7 cells (P30988 25-474): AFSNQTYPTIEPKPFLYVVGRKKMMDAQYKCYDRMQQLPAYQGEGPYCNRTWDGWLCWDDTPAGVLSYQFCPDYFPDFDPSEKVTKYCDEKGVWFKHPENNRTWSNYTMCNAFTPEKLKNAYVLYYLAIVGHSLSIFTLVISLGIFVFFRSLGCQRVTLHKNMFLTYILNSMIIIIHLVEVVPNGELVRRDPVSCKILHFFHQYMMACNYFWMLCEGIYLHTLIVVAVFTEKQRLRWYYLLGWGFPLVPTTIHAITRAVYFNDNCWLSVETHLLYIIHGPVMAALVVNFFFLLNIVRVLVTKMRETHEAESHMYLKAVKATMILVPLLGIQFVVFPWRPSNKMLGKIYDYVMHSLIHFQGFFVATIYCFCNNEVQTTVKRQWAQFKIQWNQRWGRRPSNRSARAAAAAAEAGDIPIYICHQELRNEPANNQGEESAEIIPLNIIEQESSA
Sequence of human calcitonin receptor (CTR) and RAMP3 (AMY3) in COS-7 cells (O60896 24-148): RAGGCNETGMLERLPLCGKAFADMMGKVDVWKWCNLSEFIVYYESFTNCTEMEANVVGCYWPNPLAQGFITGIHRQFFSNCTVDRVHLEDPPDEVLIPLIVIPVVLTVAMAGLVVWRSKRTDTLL
Assay type: cell-based
Source text: Amylin Receptor cAMP Assay I
AMYRs are heterodimers of the class B calcitonin (CT) G-protein-coupled receptor (CTR) and receptor activity-modifying proteins (RAMPs). All three RAMPs can interact with the CTR and form AMY1, AMY2, AMY3 with RAMP1, RAMP2 and RAMP3, respectively. Like other class B1 GPCRs, the CT receptor family is canonically coupled to Gs-mediated cAMP production, and measurement of cAMP accumulation has been the primary assay used to determine peptide selectivity and potency.
To optimize functional activity directed toward Gas coupling, COS-7 cells were stably transfected with human calcitonin receptor (CTR) and RAMP3, simultaneously. 100× concentration of compound working solutions were prepared (Agilent Technologies Bravo) with 4-fold serial dilution in 384-well Echo LDV plate (Labcyte, Cat #LP-0200). 100 nL/well 100× concentration of compound working solutions were moved to 384-well white low volume plate (Greiner, Cat #784075) using Labcyte ECHO550. 1×10^5 cells/mL COS-7/CTR or COS-7/AMY3 (HD Biosciences) cell suspensions prepared with assay buffer [DPBS containing 0.5 mM IBMX (Sigma, Cat #15879) and 0.1% BSA (GENVIEW, Cat #FA016-100 g)], 10 μL cell suspensions were added to each well of previous generated assay plate which already contains 100 nL compound at 100× concentration using ThermoFisher Multidrop Combi (1000 cells/well). Seal the plate and incubate at 37° C. with 5% CO2 for 30 min.
After incubation, the cAMP assay signal was generated using cAMP Hi-range Kit (Cisbio). 5 μL cAMP-d2 working solution was added to each well, followed by 5 μL Anti-cAMP antibody-cryptate working solution which was added to each well using ThermoFisher Multidrop Combi. The samples were then incubated at room temperature for 1 hour protected from light. the fluorescence was read at 665 and 615 nm with Reader PerkinElmer EnVision.
`Cc1ccc(CNc2nccc3cc(-c4c(C(N)=O)c(CC(C)C)nc(CCc5ccc(F)cc5)c4-c4nnc(C)o4)sc23)cn1` [Compound 157] was tested, and the pEC50 was 6.20.
`Cc1nnc(-c2c(NCc3ccc(F)cc3)nc(CC(C)C)c(C(N)=O)c2-c2ccc(C(=O)NCc3ccc(F)c(F)c3)s2)o1` [Compound 158] showed a pEC50 of 6.92.
Compound `CC(C)Cc1nc(CCc2ccc(F)cc2)c(-c2cnn(C)c2)c(-c2ccc(C(=O)NCc3ccc(F)c(F)c3)s2)c1C(N)=O` [Compound 159] has a pEC50 of 7.04.
`Cc1cc(-c2c(CCc3ccc(F)cc3)nc(CC(C)C)c(C(N)=O)c2-c2ccc(C(=O)NCc3ccc(F)c(F)c3)s2)ccn1` [Compound 160] was tested, and the pEC50 was 7.59.
In the case of `Cc1nnc(-c2c(CCc3ccc(F)cc3)nc(CC(C)C)c(C(N)=O)c2-c2cc3ccnc(N[C@@H]4CCc5ncccc54)c3s2)o1` [Compound 161], the pEC50 was 7.89.
With `Cc1nnc(-c2c(CCc3ccc(F)cc3)nc(CC(C)C)c(C(N)=O)c2-c2ccc3c(NCc4ccc(F)c(F)c4)nccc3c2)o1` [Compound 162] the pEC50 was 7.13.
`Cc1nnc(-c2c(COc3ccc(F)cc3)nc(CC(C)C)c(C(N)=O)c2-c2cc3ccnc(NCc4ccc(F)c(F)c4)c3s2)o1` [Compound 163] showed a pEC50 of 7.40.
`Cc1nnc(-c2c(COc3ccc(F)cc3)nc(CC(C)C)c(C(N)=O)c2-c2ccc(C(=O)NCc3ccc(F)c(F)c3)s2)o1` [Compound 164] was tested, and the pEC50 was 6.49.
In the case of `CO[C@@H]1CCCN(C(=O)c2ccc(-c3c(C(N)=O)c(CC(C)C)nc(CCc4ccc(F)cc4)c3-c3nnc(C)o3)s2)C1` [Compound 165], the pEC50 was less than 6.00.
For `CO[C@H]1CCCN(C(=O)c2ccc(-c3c(C(N)=O)c(CC(C)C)nc(CCc4ccc(F)cc4)c3-c3nnc(C)o3)s2)C1` [Compound 166], the pEC50 was less than 6.00.
For `Cc1nnc(-c2c(CCc3ccc(F)cc3)nc(OC(C)C)c(C(N)=O)c2-c2ccc(C(=O)NCc3ccc(F)c(F)c3)s2)o1` [Compound 167, 4-(5-((3,4-difluorobenzyl)carbamoyl)thiophen-2-yl)-6-(4-fluorophenethyl)-2-isopropoxy-5-(5-methyl-1,3,4-oxadiazol-2-yl)nicotinamide], the pEC50 was 6.47.
In the case of `Cc1nnc(-c2c(CCc3ccc(F)cc3)nc(NC(C)C)c(C(N)=O)c2-c2ccc(C(=O)NCc3ccc(F)c(F)c3)s2)o1` [Compound 168, 4-(5-((3,4-difluorobenzyl)carbamoyl)thiophen-2-yl)-6-(4-fluorophenethyl)-2-(isopropylamino)-5-(5-methyl-1,3,4-oxadiazol-2-yl)nicotinamide], the pEC50 was 6.27.
`Cc1nc(-c2c(CCc3ccc(F)cc3)nc(CC(C)C)c(C(N)=O)c2-c2ccc(C(=O)NCc3ccc(F)c(F)c3)s2)co1` [Compound 169, 4-(5-((3,4-difluorobenzyl)carbamoyl)thiophen-2-yl)-6-(4-fluorophenethyl)-2-isobutyl-5-(2-methyloxazol-4-yl)nicotinamide] gave a pEC50 of 6.91.
`Cc1nnc(-c2c(CCc3ccc(F)cc3)nc(CC(C)C)c(C(N)=O)c2N2CCC(C(=O)NCc3ccc(F)c(F)c3)C2)o1` (centres unmarked) [Compound 170, 4-(3-((3,4-difluorobenzyl)carbamoyl)pyrrolidin-1-yl)-6-(4-fluorophenethyl)-2-isobutyl-5-(5-methyl-1,3,4-oxadiazol-2-yl)nicotinamide] gave a pEC50 of 5.43.
`Cc1ccc(-c2c(CCc3ccc(F)cc3)nc(CC(C)C)c(C(N)=O)c2-c2ccc(C(=O)NCc3ccc(F)c(F)c3)s2)cn1` [Compound 171, 4-(5-((3,4-difluorobenzyl)carbamoyl)thiophen-2-yl)-2-(4-fluorophenethyl)-6-isobutyl-6′-methyl-[3, 3′-bipyridine]-5-carboxamide] was tested, and the pEC50 was 7.22.
Compound `Cc1nnc(-c2c(CC3(c4ccc(F)cc4)CC3)nc(CC(C)C)c(C(N)=O)c2-c2ccc(C(=O)NCc3ccc(F)c(F)c3)s2)o1` [Compound 172, 4-(5-((3,4-difluorobenzyl)carbamoyl)thiophen-2-yl)-6-((1-(4-fluorophenyl)cyclopropyl)methyl)-2-isobutyl-5-(5-methyl-1,3,4-oxadiazol-2-yl)nicotinamide] has a pEC50 of 5.94.
With `Cc1nnc(-c2c(COc3ccc(F)cc3)nc(CC(C)C)c(C(N)=O)c2-c2cc3ccnc(N[C@@H]4CCc5ncccc54)c3s2)o1` [Compound 173, (R)-4-(7-((6,7-dihydro-5H-cyclopenta[b]pyridin-5-yl)amino)thieno[2,3-c]pyridin-2-yl)-6-((4-fluorophenoxy)methyl)-2-isobutyl-5-(5-methyl-1,3,4-oxadiazol-2-yl)nicotinamide] the pEC50 was 6.39.
Work on `Cc1nnc(-c2c(COc3ccc(F)cc3)nc(CC(C)C)c(C(N)=O)c2-c2cc3ccnc(N[C@@H]4CCc5ccccc54)c3s2)o1` [Compound 175, (R)-4-(7-((2,3-dihydro-1H-inden-1-yl)amino)thieno[2,3-c]pyridin-2-yl)-6-((4-fluorophenoxy)methyl)-2-isobutyl-5-(5-methyl-1,3,4-oxadiazol-2-yl)nicotinamide] yielded a pEC50 of 6.68.
Compound `Cc1nnc(-c2c(CC(C)(C)c3ccc(F)cc3)nc(CC(C)C)c(C(N)=O)c2-c2ccc(C(=O)NCc3ccc(F)c(F)c3)s2)o1` [Compound 176, 4-(5-((3,4-difluorobenzyl)carbamoyl)thiophen-2-yl)-6-(2-(4-fluorophenyl)-2-methylpropyl)-2-isobutyl-5-(5-methyl-1,3,4-oxadiazol-2-yl)nicotinamide] has a pEC50 of 5.89.
In the case of `Cc1nnc(-c2c(CCc3ccc(F)cc3)nc(CC(C)C)c(C(N)=O)c2-c2ccc3c(ccn3CC3CCc4ccccc43)c2)o1` (centres unmarked) [Compound 177, 4-(1-((2,3-dihydro-1H-inden-1-yl)methyl)-1H-indol-5-yl)-6-(4-fluorophenethyl)-2-isobutyl-5-(5-methyl-1,3,4-oxadiazol-2-yl)nicotinamide], the pEC50 was 6.40.
Compound `Cc1nnc(-c2c(C3CC3c3ccc(F)cc3)nc(CC(C)C)c(C(N)=O)c2-c2ccc(C(=O)NCc3ccc(F)c(F)c3)s2)o1` (centres unmarked) [Compound 178, 4-(5-((3,4-difluorobenzyl)carbamoyl)thiophen-2-yl)-6-(2-(4-fluorophenyl)cyclopropyl)-2-isobutyl-5-(5-methyl-1,3,4-oxadiazol-2-yl)nicotinamide] has a pEC50 of 6.95.
`Cc1nnc(-c2c(CCN3CCCCC3)nc(CC(C)C)c(C(N)=O)c2-c2ccc(C(=O)NCc3ccc(F)c(F)c3)s2)o1` [Compound 179, 4-(5-((3,4-difluorobenzyl)carbamoyl)thiophen-2-yl)-2-isobutyl-5-(5-methyl-1,3,4-oxadiazol-2-yl)-6-(2-(piperidin-1-yl)ethyl)nicotinamide] showed a pEC50 of less than 6.00.
Compound `Cc1nnc(-c2c(CC3COc4ccccc4O3)nc(CC(C)C)c(C(N)=O)c2-c2ccc(C(=O)NCc3ccc(F)c(F)c3)s2)o1` (centres unmarked) [Compound 180, 4-(5-((3,4-difluorobenzyl)carbamoyl)thiophen-2-yl)-6-((2,3-dihydrobenzo[b][1,4]dioxin-2-yl)methyl)-2-isobutyl-5-(5-methyl-1,3,4-oxadiazol-2-yl)nicotinamide] has a pEC50 of 6.86.
`Cc1nnc(-c2c(CN3Cc4ccccc4C3=O)nc(CC(C)C)c(C(N)=O)c2-c2ccc(C(=O)NCc3ccc(F)c(F)c3)s2)o1` [Compound 181] showed a pEC50 of 5.03.
`Cc1nnc(-c2c(CCC(=O)N3CCCC3)nc(CC(C)C)c(C(N)=O)c2-c2ccc(C(=O)NCc3ccc(F)c(F)c3)s2)o1` [Compound 182] showed a pEC50 of 4.63.
`Cc1ccn(CCc2nc(CC(C)C)c(C(N)=O)c(-c3ccc(C(=O)NCc4ccc(F)c(F)c4)s3)c2-c2nnc(C)o2)n1` [Compound 183, 4-(5-((3,4-difluorobenzyl)carbamoyl)thiophen-2-yl)-2-isobutyl-5-(5-methyl-1,3,4-oxadiazol-2-yl)-6-(2-(3-methyl-1H-pyrazol-1-yl)ethyl)nicotinamide] was tested, and the pEC50 was 5.72.
With `Cc1nnc(-c2c(CCc3cnn(C)c3)nc(CC(C)C)c(C(N)=O)c2-c2ccc(C(=O)NCc3ccc(F)c(F)c3)s2)o1` [Compound 184, 4-(5-((3,4-difluorobenzyl)carbamoyl)thiophen-2-yl)-2-isobutyl-5-(5-methyl-1,3,4-oxadiazol-2-yl)-6-(2-(1-methyl-1H-pyrazol-4-yl)ethyl)nicotinamide] the pEC50 was 5.97.
`Cc1nnc(-c2c(CC(O)c3ccc(F)cc3)nc(CC(C)C)c(C(N)=O)c2-c2ccc(C(=O)N[C@@H]3CCc4ccccc43)s2)o1` (stereo partly drawn) [Compound 185, 4-(5-(((R)-2,3-dihydro-1H-inden-1-yl)carbamoyl)thiophen-2-yl)-6-(2-(4-fluorophenyl)-2-hydroxyethyl)-2-isobutyl-5-(5-methyl-1,3,4-oxadiazol-2-yl)nicotinamide] showed a pEC50 of 6.29.
`COC(Cc1nc(CC(C)C)c(C(N)=O)c(-c2ccc(C(=O)NCc3ccc(F)c(F)c3)s2)c1-c1nnc(C)o1)c1ccc(F)cc1` (centres unmarked) [Compound 186, 4-(5-((3,4-difluorobenzyl)carbamoyl)thiophen-2-yl)-6-(2-(4-fluorophenyl)-2-methoxyethyl)-2-isobutyl-5-(5-methyl-1,3,4-oxadiazol-2-yl)nicotinamide] showed a pEC50 of 6.91.
